System: participants with chronic migraine
Experiment: Same phase 3 study: patient-reported outcomes (MSQ v2.1, AIM-D, HIT-6, WPAI, PGI-C, treatment satisfaction, EQ-5D-5L)
Format: in vivo, human
Conditions: for Change from Baseline in HIT-6 total score at Week 12, LS Mean / Change from Baseline in HIT-6 total score at Week 12, LSMD Atogepant vs. Placebo / Change from Baseline in MSQ v2.1 Role Function - Restrictive Domain Score at Week 12, LS Mean / Change from Baseline in MSQ v2.1 Role Function - Restrictive Domain Score at Week 12, LSMD Atogepant vs. Placebo: Off-Treatment Hypothetical Estimand population
From the text: The MSQ v2.1 is a 14-item questionnaire designed to measure health-related quality of life impairments attributed to migraine in the past 4 weeks. It is divided into three domains: Role Function Restrictive assesses how migraines limit one's daily social and work-related activities; Role Function Preventive assesses how migraines prevent these activities; and the Emotional Function domain assesses the emotions associated with migraine. Participants respond to items using a 6-point scale ranging from “none of the time” to “all of the time.” Raw dimension scores are computed as a sum of item responses and rescaled to a 0 to 100 scale, where higher scores indicate better quality of life.
The AIM-D (Activity Impairment in Migraine — Diary) is an 11-function daily diary measure that assesses the impact of migraine. It is comprised of two domains that evaluate performance of daily activities (PDA: 7 items) and physical impairment (PI: 4 items). […] The AIM-D was developed as an electronic daily diary with the same set of questions administered in headache and non-headache versions. Raw domain scores are rescaled to a 0 to 100 scale, where higher scores indicate greater impact of migraine.
The HIT-6 (Headache Impact Test) is a 6-question assessment used to measure the impact headaches have on a participant's ability to function on the job, at school, at home, and in social situations. It assesses the effect that headaches have on normal daily life and the participant's ability to function. Responses are based on frequency using a 5-point scale ranging from “never” to “always.” The HIT-6 total score, which ranges from 36 to 78, is the sum of the responses—each of which is assigned a score ranging from 6 points (never) to 13 points (always)—with higher scores indicating larger impact due to headache. Yang et al., “Validation of the Headache Impact Test (HIT-6™) across episodic and chronic migraine”, Cephalalgia, 2011 February; 31(3): 357−367.
Secondary endpoints included change from baseline in mean monthly headache days across the 12 week treatment period; change from baseline in mean monthly acute medication use days across the 12-week treatment period; at least a 50% reduction in mean monthly migraine days across the 12-week treatment period; change from baseline in MSQ v2.1 Role Function-Restrictive domain score at week 12; change from baseline in mean AIM-D monthly functioning and activity impairment score across the 12-week treatment period; and change from baseline in HIT-6 total score at week 12.
FIG. 8 and Table 5 show the change from baseline in AIM-D Performance of Daily Activities at Weeks 1-4, 5-8, and 9-12 and across 12 weeks. FIG. 9 and Table 6 show change from baseline in WPAI Overall Work Productivity Loss at Weeks 1-4, 5-8, and 9-12. […] A graphical approach with weighted Bonferroni test procedure was used to control the overall type I error rate at the 2-sided α=0.05 level for key secondary endpoint comparisons between each atogepant dose vs placebo. For exploratory endpoints, nominal P values were provided without adjusting for multiplicity.
Patient-reported outcome (PRO) measures included the Performance of Daily Activities (PDA) and Physical Impairment (PI) domains of the Activity Impairment in Migraine-Diary (AIM-D), and the 5-level European Quality of Life-5 Dimension (EQ-5D-5L) descriptive system and visual analogue scale (VAS), implemented via daily diary. Scores in each domain were transformed to a 0-100 scale with higher scores indicating a greater burden from migraine. Changes in PDA and PI scores and the proportion of participants achieving clinically meaningful within-patient change in the PDA domain (≥12.5 points) and PI domain (≥10 points) were compared between participants who received atogepant vs placebo. EQ-5D-5L measures 5 dimensions of QOL, including mobility, self-care, usual activities, pain/discomfort, and anxiety/depression. […]

[1] = 30 mg BID, week 12, mITT, listed as atogepant
[2] = 60 mg QD, week 12, mITT, listed as atogepant
[3] = 60 mg, within the first 2 weeks
[4] = both doses (30 mg BID, 60 mg QD), all time points

C[C@@H]1[C@H](c2c(F)ccc(F)c2F)C[C@H](NC(=O)c2cnc3c(c2)C[C@@]2(C3)C(=O)Nc3ncccc32)C(=O)N1CC(F)(F)F [Atogepant, (S)—N—((3S,5S,6R)-6-methyl-2-oxo-1-(2,2,2-trifluoroethyl)-5-(2,3,6-trifluorophenyl)piperidin-3-yl)-2′-oxo-1′,2′,5,7-tetrahydrospiro[cyclopenta[b]pyridine-6,3′-pyrrolo[2,3-b]pyridine]-3-carboxamide]
Change from Baseline in HIT-6 total score at Week 12, LS Mean (30 mg BID): −8.47
Change from Baseline in HIT-6 total score at Week 12, LSMD Atogepant vs. Placebo (30 mg BID): −3.30
Change from Baseline in MSQ v2.1 Role Function - Restrictive Domain Score at Week 12, LS Mean (30 mg BID): 24.74
Change from Baseline in MSQ v2.1 Role Function - Restrictive Domain Score at Week 12, LSMD Atogepant vs. Placebo (30 mg BID): 7.43
Change from Baseline in WPAI Overall Work Productivity Loss, LSMD vs placebo (30 mg BID, Week 4): −12.69
Change from Baseline in WPAI Overall Work Productivity Loss, LSMD vs placebo (30 mg BID, Week 8): −8.61
Change from Baseline in AIM-D Performance of Daily Activities, LSMD vs placebo (30 mg BID, Weeks 1-4): −5.44
Change from Baseline in AIM-D Performance of Daily Activities, LSMD vs placebo (30 mg BID, Weeks 5-8): −4.75
Change from Baseline in AIM-D Performance of Daily Activities, LSMD vs placebo (30 mg BID, Weeks 9-12): −4.36
Change from baseline in MSQ v2.1 role function restrictive domain score at week 12, LS Mean (30 mg BID, mITT): 25.15
Change from baseline in MSQ v2.1 role function restrictive domain score at week 12, LSMD Atogepant vs. Placebo (30 mg BID, mITT): 7.96
Change from baseline in mean monthly performance of daily activities domain score of the AIM-D across the 12-week treatment period, LS Mean (30 mg BID, mITT): −14.29
Change from baseline in mean monthly performance of daily activities domain score of the AIM-D across the 12-week treatment period, LSMD Atogepant vs. Placebo (30 mg BID, mITT): −4.85
Change from baseline in mean monthly physical impairment domain score of the AIM-D across the 12-week treatment period, LS Mean (30 mg BID, mITT): −12.11
Change from baseline in mean monthly physical impairment domain score of the AIM-D across the 12-week treatment period, LSMD Atogepant vs. Placebo (30 mg BID, mITT): −4.19
Change from Baseline in WPAI Overall Work Productivity Loss, LSMD vs placebo (30 mg BID, week 12): −7.94
MSQ v2.1 Emotional Function domain score change from baseline, LSMD vs placebo (30 mg BID, week 12): 6.36
MSQ v2.1 Role Function-Preventive domain score change from baseline, LSMD vs placebo (30 mg BID, week 12): 8.10
PGI-C responders (30 mg BID, week 12, mITT): 153/239
PGI-C responders (much better or very much better), Percentage (30 mg BID, week 12, mITT): 64.0%
PGI-C responders, OR (95% CI) vs placebo (30 mg BID, week 12, mITT): 3.36 (2.29, 4.94)
Satisfaction with study medication (satisfied or extremely satisfied), Percentage (30 mg BID, week 12, mITT): 64.6%
Satisfaction with study medication responders (30 mg BID, week 12, mITT): 148/229
Satisfaction with study medication, OR (95% CI) vs placebo (30 mg BID, week 12, mITT): 2.67 (1.82, 3.91)
PGI-C responders (much better or very much better), Percentage [1]: 64.0%
Satisfaction with study medication (satisfied or extremely satisfied), Percentage [1]: 64.6%
Change from Baseline in HIT-6 total score at Week 12, LS Mean (60 mg QD): −7.83
Change from Baseline in HIT-6 total score at Week 12, LSMD Atogepant vs. Placebo (60 mg QD): −2.66
Change from Baseline in MSQ v2.1 Role Function - Restrictive Domain Score at Week 12, LS Mean (60 mg QD): 23.09
Change from Baseline in MSQ v2.1 Role Function - Restrictive Domain Score at Week 12, LSMD Atogepant vs. Placebo (60 mg QD): 5.78
Change from Baseline in WPAI Overall Work Productivity Loss, LSMD vs placebo (60 mg QD, Week 4): −15.26
Change from Baseline in WPAI Overall Work Productivity Loss, LSMD vs placebo (60 mg QD, Week 8): −11.33
Change from Baseline in AIM-D Performance of Daily Activities, LSMD vs placebo (60 mg QD, Weeks 1-4): −4.44
Change from Baseline in AIM-D Performance of Daily Activities, LSMD vs placebo (60 mg QD, Weeks 5-8): −3.59
Change from Baseline in AIM-D Performance of Daily Activities, LSMD vs placebo (60 mg QD, Weeks 9-12): −2.11
Change from baseline in MSQ v2.1 role function restrictive domain score at week 12, LS Mean (60 mg QD, mITT): 23.33
Change from baseline in MSQ v2.1 role function restrictive domain score at week 12, LSMD Atogepant vs. Placebo (60 mg QD, mITT): 6.15
Change from baseline in mean monthly performance of daily activities domain score of the AIM-D across the 12-week treatment period, LS Mean (60 mg QD, mITT): −12.82
Change from baseline in mean monthly performance of daily activities domain score of the AIM-D across the 12-week treatment period, LSMD Atogepant vs. Placebo (60 mg QD, mITT): −3.38
Change from baseline in mean monthly physical impairment domain score of the AIM-D across the 12-week treatment period, LS Mean (60 mg QD, mITT): −10.63
Change from baseline in mean monthly physical impairment domain score of the AIM-D across the 12-week treatment period, LSMD Atogepant vs. Placebo (60 mg QD, mITT): −2.71
participants achieving clinically relevant reduction with AIM-D PDA of ≥12.5 (60 mg QD, week 1): 42.9%
participants achieving clinically relevant reduction with AIM-D PI of ≥10 (60 mg QD, week 1): 43.7%
AIM-D PDA change from baseline, LSMD vs placebo (60 mg QD, week 1, mITT): −5.83
AIM-D PI change from baseline, LSMD vs placebo (60 mg QD, week 1, mITT): −4.12
Change from Baseline in WPAI Overall Work Productivity Loss, LSMD vs placebo (60 mg QD, week 12): −9.64
MSQ v2.1 Emotional Function domain score change from baseline, LSMD vs placebo (60 mg QD, week 12): 6.81
MSQ v2.1 Role Function-Preventive domain score change from baseline, LSMD vs placebo (60 mg QD, week 12): 6.86
PGI-C responders (60 mg QD, week 12, mITT): 130/246
PGI-C responders (much better or very much better), Percentage (60 mg QD, week 12, mITT): 52.8%
PGI-C responders, OR (95% CI) vs placebo (60 mg QD, week 12, mITT): 2.16 (1.48, 3.15)
Satisfaction with study medication (satisfied or extremely satisfied), Percentage (60 mg QD, week 12, mITT): 59.2%
Satisfaction with study medication responders (60 mg QD, week 12, mITT): 138/233
Satisfaction with study medication, OR (95% CI) vs placebo (60 mg QD, week 12, mITT): 2.16 (1.49, 3.15)
PGI-C responders (much better or very much better), Percentage [2]: 52.8%
Satisfaction with study medication (satisfied or extremely satisfied), Percentage [2]: 59.2%
EQ-5D-5L VAS score, LSMD vs placebo [3]: 4.47
mean EQ-5D-5L descriptive system score, LSMD vs placebo [3]: 0.04
proportion meeting HIT-6 responder criteria (score reduction ≥5 points) vs placebo (all time points and doses, nominal P<0.001): nominally significantly greater
WPAI activity impairment vs. placebo [4]: Nominally significant improvements
WPAI presenteeism vs. placebo [4]: Nominally significant improvements
WPAI absenteeism vs. placebo (both doses (30 mg BID, 60 mg QD), weeks 4 and 12): Nominally significant improvements
HIT-6 scores vs placebo (both doses, weeks 4 and 8, nominal P<0.001): nominally significant improvements

Reference: patent US20230321055A1, “PREVENTIVE TREATMENT OF MIGRAINE” (priority 2022, published 2023)
